The values that follow come from patent US20250195521A1 (Revolution Medicines, Inc., priority 2020, published 2025).

pEC50, pIC50: −log10 of the molar value.

Common to all, as to format: cell-based, human
Assay [1] relates to AsPC-1 (K-Ras G12D). Put plainly: CellTiter-Glo cell viability assay, AsPC-1. The settings on record: Homo sapiens, ASPC1, 120 h, read-out: AsPC-1 Cell Viability IC50. As to the method: (§1) Note—The following protocol describes a procedure for monitoring cell viability of K-Ras mutant cancer cell lines in response to a compound of the invention. Other RAS isoforms may be employed, though the number of cells to be seeded will vary based on cell line used.
(§2) Test compounds (132.5 nL) were directly dispensed into the assay plates containing cells. […] On day 5, assay plates and their contents were equilibrated to room temperature for approximately 30 minutes. […] Luminescence was measured using the PerkinElmer Enspire. Data were normalized by the following: (Sample signal/Avg. DMSO)*100. The data were fit using a four-parameter logistic fit.

In assay [2] the test system is NCI-H358 (K-Ras G12C). The assay can be described thus: CellTiter-Glo cell viability assay, H358. The settings on record: Homo sapiens, NCI-H358, 120 h, read-out: H358 Cell Viability IC50, K-Ras G12C, 5-day treatment. As to the method:
as §1, §2

For assay [3], the system named is AsPC-1 (K-Ras G12D). Put plainly: Potency assay: pERK. The settings on record: Homo sapiens, ASPC1, read-out: pERK EC50. On the procedure:
The purpose of this assay is to measure the ability of test compounds to inhibit K-Ras in cells. […] This procedure measures a decrease in cellular pERK in response to test compounds. The procedure described below in NCI-H358 cells is applicable to K-Ras G12C.
NCI-H358 cells were grown and maintained using media and procedures recommended by the ATCC. On the day prior to compound addition, cells were plated in 384-well cell culture plates (40 μl/well) and grown overnight in a 37° C., 5% CO2 incubator. Test compounds were prepared in 10, 3-fold dilutions in DMSO, with a high concentration of 10 mM. On the day of assay, 40 nL of test compound was added to each well of cell culture plate using an Echo550 liquid handler (LabCyte®). Concentrations of test compound were tested in duplicate. After compound addition, cells were incubated 4 hours at 37° C., 5% CO2. Following incubation, culture medium was removed and cells were washed once with phosphate buffered saline.
In some experiments, cellular pERK level was determined using the AlphaLISA SureFire Ultra p-ERK1/2 Assay Kit (PerkinElmer). Cells were lysed in 25 μL lysis buffer, with shaking at 600 RPM at room temperature. Lysate (10 μL) was transferred to a 384-well Opti-plate (PerkinElmer) and 5 μL acceptor mix was added. After a 2-hour incubation in the dark, 5 μL donor mix was added, plate was sealed, and incubated 2 hours at room temperature. Signal was read on an Envision plate reader (PerkinElmer) using standard AlphaLISA settings. Analysis of raw data was carried out in Excel (Microsoft) and Prism (GraphPad). Signal was plotted vs. the decadal logarithm of compound concentration, and IC50 was determined by fitting a 4-parameter sigmoidal concentration response model.
In other experiments, cellular pERK was determined by In-Cell Western. Following compound treatment, cells were washed twice with 200 μL tris buffered saline (TBS) and fixed for 15 minutes with 150 μL 4% paraformaldehyde in TBS. Fixed cells were washed 4 times for 5 minutes with TBS containing 0.1% Triton X-100 (TBST) and then blocked with 100 μL Odyssey blocking buffer (LI-COR) for 60 minutes at room temperature. Primary antibody (PERK, CST-4370, Cell Signaling Technology) was diluted 1:200 in blocking buffer, and 50 μL was added to each well and incubated overnight at 4° C. Cells were washed 4 times for 5 minutes with TBST. Secondary antibody (IR-800CW rabbit, LI-COR, diluted 1:800) and DNA stain DRAQ5 (LI-COR, diluted 1:2000) were added and incubated 1-2 hours at room temperature. Cells were washed 4 times for 5 minutes with TBST. Plates were scanned on a Li—COR Odyssey CLx Imager. Analysis of raw data was carried out in Excel (Microsoft) and Prism (GraphPad). Signal was plotted vs. the decadal logarithm of compound concentration, and IC50 was determined by fitting a 4-parameter sigmoidal concentration response model.

For orientation: pIC50 means the IC50 on a negative log10 scale, so that one unit is a factor of ten. As a reminder, the pEC50 is −log10 of the EC50, conventionally taken in molar units. For `CCn1c(-c2cnccc2COC)c2c3cc(ccc31)-c1cc(O)cc(c1)C[C@H](NC(=O)[C@H](C(C)C)N(C)C(=O)CN(C)C(=O)[C@H]1CN1Cc1ccccc1)C(=O)N1CCC[C@H](N1)C(=O)OCC(C)(C)C2` (stereo partly drawn) [Example 9], the pIC50 was 5.00 to 6.00 in assay [1] and 7.00 to 8.00 in assay [2]. Besides, in assay [3], the pEC50 was over 5.30.

As for `CCn1c(-c2cnccc2COC)c2c3cc(ccc31)-c1cc(O)cc(c1)C[C@H](NC(=O)[C@H](C(C)C)N(C)C(=O)CN(C)C(=O)[C@@H]1CN1Cc1ccccc1)C(=O)N1CCC[C@H](N1)C(=O)OCC(C)(C)C2` (stereo partly drawn) [Example 10], the pIC50 in assay [1] was 5.00 to 6.00; in assay [2], 7.00 to 8.00. For the same compound, in assay [3], the negative logarithm of the EC50 (pEC50) is over 5.30.

Consider `CCn1c(-c2cnccc2COC)c2c3cc(ccc31)-c1cc(O)cc(c1)C[C@H](NC(=O)[C@H](C(C)C)N(C)C(=O)CN(C)C(=O)[C@@H]1N[C@@H]1C(=O)OC)C(=O)N1CCC[C@H](N1)C(=O)OCC(C)(C)C2` [Example 49, methyl (2S,3R)-3-((2-(((2S)-1-(((6^3S,4S)-1^1-ethyl-25-hydroxy-1^2-(4-(methoxymethyl)pyridin-3-yl)-10,10-dimethyl-5,7-dioxo-6^1,6^2,6^3,6^4,6^5,6^6-hexahydro-1^1H-8-oxa-1 (5,3)-indola-6 (1,3)-pyridazina-2 (1,3)-benzenacycloundecaphane-4-yl)amino)-3-methyl-1-oxobutan-2-yl) (methyl)amino)-2-oxoethyl) (methyl)carbamoyl) aziridine-2-carboxylate], for which the pIC50 in assay [1] and in assay [2] was 5.00 to 6.00 in each case. The pEC50 in assay [3] was over 5.30.

For `CCn1c(-c2cccnc2[C@H](C)OC)c2c3cc(ccc31)-c1cc(O)cc(c1)C[C@H](NC(=O)[C@H](C(C)C)N(C)C(=O)CN(C)C(=O)[C@@H]1N[C@H]1COC)C(=O)N1CCC[C@H](N1)C(=O)OCC(C)(C)C2` [Example 85], the pIC50 in assay [1] is 5.00 to 6.00; in assay [2], 7.00 to 8.00. In addition, in assay [3], the pEC50 is over 5.30.

With `CCn1c(-c2cccnc2[C@H](C)OC)c2c3cc(ccc31)-c1cc(O)cc(c1)C[C@H](NC(=O)[C@H](C(C)C)N(C)C(=O)CN(C)C(=O)C1CN1CCOC)C(=O)N1CCC[C@H](N1)C(=O)OCC(C)(C)C2` (stereo partly drawn) [Example 90], the pIC50 is 6.00 to 7.00 in assay [1] and over 8.00 in assay [2]. Besides, in assay [3], the pEC50 is over 5.30.

On to `CCn1c(-c2cccnc2[C@H](C)OC)c2c3cc(ccc31)-c1cc(O)cc(c1)C[C@H](NC(=O)[C@H](C1CCCC1)N(C)C(=O)CN(C)C(=O)[C@H]1CN1)C(=O)N1CCC[C@H](N1)C(=O)OCC(C)(C)C2` [Example 95, (2R)—N-(2-(((1S)-1-cyclopentyl-2-(((6^3S,4S)-1^1-ethyl-25-hydroxy-1^2-(2-((S)-1-methoxyethyl)pyridin-3-yl)-10,10-dimethyl-5,7-dioxo-61,62,63,64,65,66-hexahydro-1^1H-8-oxa-1 (5,3)-indola-6 (1,3)-pyridazina-2 (1,3)-benzenacycloundecaphane-4-yl)amino)-2-oxoethyl) (methyl)amino)-2-oxoethyl)-N-methylaziridine-2-carboxamide], for which the pIC50 in assay [1] is 7.00 to 8.00; in assay [2], over 8.00. In addition, the negative-log EC50 (pEC50) in assay [3] is over 5.30.

`CCn1c(-c2cccnc2[C@H](C)OC)c2c3cc(ccc31)-c1cc(O)cc(c1)C[C@H](NC(=O)[C@H](C(C)C)N(C)C(=O)[C@H](C)N(C)C(=O)[C@H]1CN1)C(=O)N1CCC[C@H](N1)C(=O)OCC(C)(C)C2` [Example 102]: the pIC50 in assay [1] is 6.00 to 7.00; in assay [2] it was 7.00 to 8.00. For the same compound, the pEC50 in assay [3] is over 5.30.

For `CCn1c(-c2cccnc2[C@H](C)OC)c2c3cc(ccc31)-c1cccc(c1)C[C@H](NC(=O)[C@H](C(C)C)N(C)C(=O)CN(C)C(=O)[C@H]1CN1)C(=O)N1CCC[C@H](N1)C(=O)OCC(C)(C)C2` [Example 107], the values for the pIC50 in assay [1] and in assay [2] were 5.00 to 6.00 and 6.00 to 7.00, respectively. Moreover, the pEC50 in assay [3] was over 5.30.
